Experimental data: PubChem BioAssay (NCI)
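48-hour exposure; five concentrations; linearly interpolated endpoints. Abbreviation: GI50, concentration required for 50% inhibition of growth. TGI marks complete inhibition of growth.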

Columns and labels:
Assay in all cases: DTP human tumour cell line panel, 48 h
[1] = test system: SF-539 CNS
[2] = test system: HCT-15 colon
[3] = test system: MDA-N
[4] = test system: SN12C renal
[5] = test system: NCI-H522 lung
[6] = test system: MDA-MB-231 breast
[7] = test system: BT-549 breast
[8] = test system: DU-145 prostate
[9] = test system: NCI-H460 lung
[10] = test system: SR leukemia
[11] = test system: A498 renal
[12] = test system: HOP-92 NSCLC
[13] = test system: UO-31 renal
[14] = test system: KM12 colon
[15] = test system: HL-60(TB) leukemia
[16] = test system: EKVX NSCLC
[17] = test system: UACC-62 melanoma
[18] = test system: UACC-257 melanoma
[19] = test system: SNB-19 CNS
[20] = test system: MCF7 breast
[21] = test system: MOLT-4 leukemia
[22] = test system: OVCAR-8 ovarian
[23] = test system: COLO 205 colon
[24] = test system: MALME-3M melanoma
[25] = test system: SK-MEL-2 melanoma
[26] = test system: SF-295 CNS
[27] = test system: LOX IMVI melanoma
[28] = test system: HS 578T breast
[29] = test system: SW-620 colon
[30] = test system: OVCAR-5 ovarian
[31] = test system: HOP-62 NSCLC
[32] = test system: OVCAR-4 ovarian
[33] = test system: SK-OV-3 ovarian
[34] = test system: MDA-MB-435
[35] = test system: ACHN renal
[36] = test system: K-562 leukemia
[37] = test system: 786-0 renal
[38] = test system: CCRF-CEM leukemia
[39] = test system: HT29 colon
[40] = test system: M14 melanoma
[41] = test system: A549 NSCLC
[42] = test system: NCI-H23 lung
[43] = test system: PC-3 prostate
[44] = test system: HCT-116 colon
[45] = test system: SNB-75 CNS
[46] = test system: HCC-2998 colon
[47] = test system: NCI/ADR-RES ovarian
[48] = test system: OVCAR-3 ovarian
[49] = test system: SK-MEL-28 melanoma
[50] = test system: CAKI-1 renal
[51] = test system: SF-268 CNS
[52] = test system: TK-10 renal
[53] = test system: IGROV1 ovarian
[54] = test system: RPMI-8226 leukemia
[55] = test system: U251 CNS
[56] = test system: T-47D breast
[57] = test system: SK-MEL-5 melanoma
[58] = test system: NCI-H226 lung
[59] = test system: RXF 393 renal

In the case of C=C(C)C(=O)CC[C@@H](C)[C@H]1[C@@H](OC2OC(CO)C(O)C(O)C2O)C[C@@]2(C)[C@@H]3C[C@H](O)C4C(C)(C)[C@@H](OC5OC(CO)C(O)C(O)C5O)CC[C@@]45C[C@@]35CC[C@]12C (some centres undefined), the TGI [1] is reported as > 100 µM, the TGI [2] is reported as > 100 µM and the TGI [3] is reported as 55.6 µM. The TGI [4] was > 100 µM, the TGI [5] was > 100 µM and the TGI [6] was > 100 µM. The TGI [7] was > 100 µM, the TGI [8] was > 100 µM and the TGI [9] was > 100 µM. The TGI [10] was > 100 µM, the TGI [11] was > 100 µM and the TGI [12] was > 100 µM. For the same compound, the TGI [13] was > 100 µM, the TGI [14] was > 100 µM and the TGI [15] was > 100 µM. The TGI [16] was > 100 µM, the TGI [17] was > 100 µM and the TGI [18] was > 100 µM. The TGI [19] was > 100 µM, the TGI [20] was > 100 µM and the TGI [21] was > 100 µM. The TGI [22] was > 100 µM, the TGI [23] was > 100 µM and the TGI [24] was > 100 µM. The TGI [25] was > 100 µM, the TGI [26] was > 100 µM and the TGI [27] was > 100 µM. The TGI [28] was > 100 µM, the TGI [29] was > 100 µM and the TGI [30] was > 100 µM. The TGI [31] was > 100 µM, the TGI [32] was > 100 µM and the TGI [33] was > 100 µM. The TGI [34] was > 100 µM, the TGI [35] was > 100 µM and the TGI [36] was > 100 µM. For the same compound, the TGI [37] was > 100 µM, the TGI [38] was > 100 µM and the TGI [39] was > 100 µM. The TGI [40] was > 100 µM, the TGI [41] was > 100 µM and the TGI [42] was > 100 µM. For the same compound, the TGI [43] was > 100 µM, the TGI [44] was > 100 µM and the TGI [45] was > 100 µM. The TGI [46] was > 100 µM, the TGI [47] was > 100 µM and the TGI [48] was > 100 µM. The TGI [49] was > 100 µM, the TGI [50] was > 100 µM and the TGI [51] was > 100 µM. The TGI [52] was > 100 µM, the TGI [53] was > 100 µM and the TGI [54] was > 100 µM. The TGI [55] was > 100 µM, the TGI [56] was > 100 µM and the TGI [57] was > 100 µM.

COc1cc2c(cc1OC)C13CCN4C=C5CCOC6CC(=O)N2C1C6C5CC43 (centres undefined) was tested, and the TGI [1] was > 100 µM, the TGI [2] was > 100 µM and the TGI [3] was > 100 µM. The TGI [4] was > 100 µM, the TGI [5] was > 100 µM and the TGI [6] was > 100 µM. For the same compound, the TGI [7] was > 100 µM, the TGI [8] was > 100 µM and the TGI [9] was > 100 µM. For the same compound, the TGI [10] was > 100 µM, the TGI [11] was > 100 µM and the TGI [12] was > 100 µM. For the same compound, the TGI [13] was > 100 µM, the TGI [14] was > 100 µM and the TGI [15] was > 100 µM. For the same compound, the TGI [16] was > 100 µM, the TGI [17] was > 100 µM and the TGI [18] was > 100 µM. For the same compound, the TGI [19] was > 100 µM, the TGI [20] was > 100 µM and the TGI [21] was > 100 µM. The TGI [22] was > 100 µM, the TGI [23] was > 100 µM and the TGI [24] was > 100 µM. The TGI [25] was > 100 µM, the TGI [26] was > 100 µM and the TGI [27] was > 100 µM. For the same compound, the TGI [28] was > 100 µM, the TGI [29] was > 100 µM and the TGI [30] was > 100 µM. For the same compound, the TGI [31] was > 100 µM, the TGI [32] was > 100 µM and the TGI [33] was > 100 µM. The TGI [34] was > 100 µM, the TGI [35] was > 100 µM and the TGI [36] was > 100 µM. The TGI [58] was > 100 µM, the TGI [37] was > 100 µM and the TGI [38] was > 100 µM. For the same compound, the TGI [59] was > 100 µM, the TGI [39] was > 100 µM and the TGI [40] was > 100 µM. The TGI [41] was > 100 µM, the TGI [42] was > 100 µM and the TGI [43] was > 100 µM. The TGI [44] was > 100 µM, the TGI [45] was > 100 µM and the TGI [47] was > 100 µM. For the same compound, the TGI [48] was > 100 µM, the TGI [49] was > 100 µM and the TGI [50] was > 100 µM. The TGI [51] was > 100 µM, the TGI [52] was > 100 µM and the TGI [53] was > 100 µM. For the same compound, the TGI [54] was > 100 µM, the TGI [55] was > 100 µM and the TGI [56] was > 100 µM. The TGI [57] was > 100 µM.

For CCCC(=O)O, the TGI [1] was 16900 µM, the TGI [2] was > 18700 µM and the TGI [3] was > 18700 µM. For the same compound, the TGI [4] was > 18700 µM, the TGI [5] was > 18700 µM and the TGI [6] was 18000 µM. The TGI [7] was > 18700 µM, the TGI [8] was 13200 µM and the TGI [9] was > 18700 µM. It also gave a TGI [10] of 5340 µM, a TGI [11] of 10400 µM and a TGI [12] of 14200 µM. For the same compound, the TGI [13] was 10200 µM, the TGI [14] was > 18700 µM and the GI50 [15] was 1120 µM. For the same compound, the TGI [15] was > 18700 µM, the TGI [16] was > 18700 µM and the TGI [17] was 4930 µM. For the same compound, the TGI [19] was > 18700 µM, the TGI [21] was > 18700 µM and the TGI [22] was > 18700 µM. For the same compound, the GI50 [23] was 2550 µM, the TGI [23] was 9160 µM and the GI50 [24] was 3490 µM. For the same compound, the TGI [24] was > 18700 µM, the TGI [25] was > 18700 µM and the TGI [26] was > 18700 µM. The TGI [27] was 8470 µM, the GI50 [28] was 4950 µM and the TGI [28] was > 18700 µM. The TGI [29] was > 18700 µM, the TGI [30] was > 18700 µM and the TGI [31] was > 18700 µM. For the same compound, the TGI [32] was > 18700 µM, the TGI [33] was > 18700 µM and the TGI [34] was > 18700 µM. The TGI [35] was 14500 µM, the TGI [58] was > 18700 µM and the TGI [37] was > 18700 µM. For the same compound, the TGI [38] was > 18700 µM, the TGI [59] was 16100 µM and the TGI [39] was > 18700 µM. The TGI [40] was > 18700 µM, the TGI [41] was > 18700 µM and the TGI [42] was > 18700 µM. The TGI [43] was > 18700 µM, the TGI [44] was > 18700 µM and the TGI [45] was > 18700 µM. For the same compound, the GI50 [46] was 10800 µM, the TGI [46] was > 18700 µM and the GI50 [47] was 1460 µM. The TGI [47] was > 18700 µM, the TGI [48] was > 18700 µM and the TGI [49] was > 18700 µM. The TGI [50] was 12000 µM, the TGI [51] was > 18700 µM and the GI50 [52] was 2120 µM. For the same compound, the TGI [52] was > 18700 µM, the TGI [53] was > 18700 µM and the GI50 [54] was 473 µM. For the same compound, the TGI [55] was > 18700 µM, the TGI [56] was 9400 µM and the GI50 [57] was 2410 µM. For the same compound, the TGI [57] was 6100 µM.
